# According to US4985547A, “External skin care preparation” (Kao Corporation, priority 1987, dated 1991):
# Columns and labels:
# [1] = system: horny layer; assay: Skin conductance (water content of horny layer) after two-week coating on cheeks; type: in vivo, women; set-up: key: conductance meter reading; ≤5 = severe roughness, ≥20 = no roughness; details: Invention Product 1: vaseline and compound 3:1 by weight; two weeks; 20° C., 40% humidity; 5 and smaller = severe roughness, 20 or greater = no substantial roughness
# Description: (§1) Compounds Ia1 -Ia18 prepared respectively in Referential Examples 1, 2 and 3 and following the procedures of these referential examples, compounds Ib1 -Ib5 prepared respectively in Referential Example 4 and following the procedure of the referential example, compounds Id1 -Id5 prepared respectively in Referential Example 5 and following the procedure of the referential example, compounds Ie1 -Ie4 prepared respectively in Referential Examples 6-9, and conventional compounds Ic1 -Ic13, Ie5 -Ie14 and II1 -II12 were used separately. Mixtures (Invention Products 1), each of which had been formulated by mixing vaseline and the compound (I or II) at a weight ratio of 3:1, and vaseline (Comparative Product 1) were evaluated in skin conductance and skin roughness by the following methods.
# (§2) Chosen as volunteers in winter were 10 women of 20-50 years of old who had skin roughness on their both cheeks. Different external skin care preparations were coated separately on the left and right cheeks of each volunteer for two weeks. On the following day of the completion of the two-week coating test, tests were conducted with respect to the following properties.
# After washing the face with warm water of 37° C., each volunteer was allowed to rest for 20 minutes in a room which was air-conditioned at 20° C. and 40% humidity. The water content of their horny layer was measured by a skin conductance meter (manufactured by IBS Company). A smaller conductance value indicates greater skin roughness. Conductance values of 5 and smaller indicate severe skin roughness. On the contrary, no substantial skin roughness is observed where this value is 20 or greater.
# [2] = system: skin roughness; assay: Score of skin roughness, visual ranking after two-week coating on cheeks; type: in vivo, women; details: compound 1.0 wt. %, average, 0 = none, 4 = severe
# Description: as §1, §2
# Skin roughness was observed visually and ranked in accordance with the following standard. Each score was indicated by an average value.
# Score Ranking of skin roughness
# 0 No skin roughness was observed.
# 1 Slight skin roughness was observed.
# 2 Skin roughness was observed.
# 3 Rather severe skin roughness was observed.
# 4 Severe skin roughness was observed.
# Using separately the compounds used in Example 1, external skin care preparations (emulsified cosmetic preparations) of their corresponding compositions shown below in Table 2 were formulated. Their effects for the improvement of skin roughness were evaluated in the same manner as in Example 1.
# [3] = Invention product 2: emulsified cosmetic, glyceryl ether 2.0 wt. %
# [4] = Invention product 3: emulsified cosmetic, arginine monocetylphosphate 2.0 wt. %
# [5] = Invention product 4: emulsified cosmetic, polyoxyethylene (20) sorbitan stearate 1.0 and sorbitan monostearate 1.0 wt. %
Structure (SMILES),Skin conductance [1],"Score of skin roughness [2, 3]","Score of skin roughness [2, 4]","Score of skin roughness [2, 5]"
CCCCCCCCCCCCCCCCCC(=O)N(CC(=O)O)CC(O)COCCCCCCCCCCCCCC (centres unmarked) [Compound Ic1],14,0.7,0.9,1.2
CCCCCCCCCCCCCCCCCC(=O)N(CCOCCO)CC(O)COCCCCCCCCCC (centres unmarked) [Compound Ib4],17,0.4,0.6,0.9
CCCCCCCCCCCCCCCCOCC(O)CN(CCOP(=O)([O-])OCC[N+](C)(C)C)C(=O)CCCCCCCCCCCCCCC (centres unmarked) [Compound Ie7],–,0.5,0.7,1.0
CCCCCCCCCCCCCCCCOCC(CN(CCOP(=O)([O-])OCC[N+](C)(C)C)C(=O)CCCCCCCCCCCCCCC)OP(=O)([O-])OCC[N+](C)(C)C (centres unmarked) [Compound Ie14],10,1.2,1.4,1.9
CCCCCCCCCCCCCCCCC(O)CN(CCO)C(=O)CCCCCCCCC (centres unmarked) [Compound Id2],18,0.3,0.5,0.8
CCCCCCCC/C=C\CCCCCCCCOCC(O)CN(CCOP(=O)([O-])OCC[N+](C)(C)C)C(=O)CCCCCCCCCCCCCCCCC (centres unmarked) [Compound Ie12],13,0.9,0.9,1.5
CCCCCCCCCCCCCCCCCCOCC(O)CN(CCCCCCO)C(=O)CCCCCCCCCCCCCCCCC (centres unmarked) [Compound Ia9],20,0.2,0.4,0.9
CCCCCCCCCCCCCCCCCCOCC(O)CN(CC(=O)O)CC(O)COCCCCCCCCCC (centres unmarked) [Compound II7],10,0.5,0.8,1.1
CCCCCCCCCCCCCCCCOCC(O)CN(C(=O)CCCCCCCCCCCCCCC)C(C(=O)O)C(C)C (centres unmarked) [Compound Ic7],15,0.6,0.8,1.1
CCCCCCCCCCCCCCCCCC(=O)N(CCO)CC(O)CCCCCCCCCC (centres unmarked) [Compound Id4],17,0.3,0.5,0.8
CCCCCCCCCCCCCCCCOCC(O)CN(C(=O)CCCCCCCCCCCCCCC)C(Cc1c[nH]cn1)C(=O)O (centres unmarked) [Compound Ic12],11,1.0,1.3,1.6
CCCCCCCCCCOCC(O)CN(CCCO)C(=O)CCCCCCCCC (centres unmarked) [Compound Ia3],10,0.7,1.0,1.3
CCCCCCCCCCCCCCCCOCC(O)CN(C(=O)CCCCCCCCCCCCCCC)C(CO)C(=O)O (centres unmarked) [Compound Ic8],18,0.4,0.6,0.9
"CCCCCCCCCCCCCCCCOCC(O)CN(CCCO)C(=O)CCCCCCCCCCCCCCC (centres unmarked) [Compound Ia1, N-(3-hexadecyloxy-2-hydroxypropyl)-N-3-hydroxypropylhexadecanamide]",20,0.2,0.4,0.8
CCCCCCCCCCCCCCCCCCOCC(O)CN(CC(O)COCCCCCCCCCCCCCCCCCC)C(C)=O (centres unmarked) [Compound II12],20,0.2,0.4,0.8
CCCCCCCCCCCCCCCCCCOCC(O)CN(CCOCCO)C(=O)CCCCCCCCC (centres unmarked) [Compound Ib3],14,0.6,0.9,1.1
CCCCCCCCCCCCCCCCCCOCC(O)CN(C(=O)CCCCCCCCCCCCCCCCC)C(C)(CO)CO (centres unmarked) [Compound Ia14],23,0.1,0.3,0.6

Structure (SMILES),Skin conductance [1],"Score of skin roughness [2, 3]","Score of skin roughness [2, 4]","Score of skin roughness [2, 5]"
CCCCCCCCCCOCC(O)CN(CCO)CC(O)COCCCCCCCCCC (centres unmarked) [Compound II2],8,0.8,1.0,1.2
CCCCCCCCCCCCCCCCCCOCC(O)CN(CC(=O)O)CC(O)COCCCCCCCCCCCCCCCCCC (centres unmarked) [Compound II8],20,0.2,0.4,0.8
CCCCCCCCCCCCCCCCCCOCC(O)CN(CC(C)O)C(=O)CCCCCCCCCCCCCCCCC (centres unmarked) [Compound Ia13],13,0.5,0.7,1.1
CCCCCCCCCCCCCCCCCC(=O)N(CC(=O)O)CC(O)CCCCCCCCCCCCCCCC (centres unmarked) [Compound Ic4],13,0.8,1.0,1.3
CCCCCCCCCCCCCCCCCCOCC(O)CN(C(=O)CCCCCCCCCCCCCCCCC)C(C)CO (centres unmarked) [Compound Ia16],15,0.4,0.6,0.9
CCCCCCCCCCCCCCCCCCOCC(O)CN(CC(O)CO)C(=O)CCCCCCCCC (centres unmarked) [Compound Ia12],18,0.3,0.5,0.9
CCCCCCCCCCCCCCCCCC(=O)N(CCCCCCO)CC(O)COCCCCCCCCCC (centres unmarked) [Compound Ia7],11,0.6,0.9,1.2
CCCCCCCCCCCCCCCCCCOCC(O)CN(CC(O)COCCCCCCCCCC)C(C)=O (centres unmarked) [Compound II11],12,0.4,0.8,1.2
CCCCCCCCCCCCCCCCOCC(O)CN(C(=O)CCCCCCCCCCCCCCC)C(CCSC)C(=O)O (centres unmarked) [Compound Ic9],16,0.5,0.7,1.0
CCCCCCCCCCCCCCCCCCOCC(O)CN(CCCCCCO)C(=O)CCCCCCCCCC (centres unmarked) [Compound Ia8],13,0.5,0.7,1.1
CCCCCCCCCCCCCCCCOCC(O)CN(CCOP(=O)(O)OCCNCc1ccccc1)C(=O)CCCCCCCCCCCCCCC (centres unmarked) [Compound Ie8],15,0.6,1.1,1.3
"CCCCCCCCCCCCCCCCOCC(O)CN(CCOCCO)C(=O)CCCCCCCCCCCCCCC (centres unmarked) [Compound Ib1, N-(3-hexadecyloxy-2-hydroxypropyl)-N-2-hydroxyethoxyethylhexadecanamide]",20,0.1,0.2,0.7
CCCCCCCCCCCCCCCCCCOCC(O)CN(CCCO)C(=O)CCCCCCCCC (centres unmarked) [Compound Ia5],17,0.3,0.5,1.0
CCCCCCCCCCCCCCCCCC(=O)N(CC(=O)O)CC(O)COCCCCCCCCCCCCCC (centres unmarked) [Compound Ic2],15,0.6,0.8,1.1
CCCCCCCCCCCCCCCCOCC(O)CN(C(=O)CCCCCCCCCCCCCCC)C(C)C(=O)O (centres unmarked) [Compound Ic5],13,0.8,1.0,1.3
CCCCCCCCCCCCCCCCOCC(O)CN(C(=O)CCCCCCCCCCCCCCC)C(Cc1ccccc1)C(=O)O (centres unmarked) [Compound Ic6],12,0.9,1.2,1.5
